Literature values in US20250312332A1, “TREATMENT OF MUSCLE FIBROSIS” (University of Newcastle upon Tyne, priority 2022, published 2025).
Where a name gives a salt, the structure may show the parent alone. Read-outs that look alike come from different tables or passages of the source.

How the values were obtained:
[1] = monkey eyes; cited from earlier work
[2] = system: myosin II light chain (MLC) phosphorylation induced by MRCKβ; settings: in vitro; cited from earlier work
MRCKα = MRCKα (Homo sapiens, UniProt Q5VT25); settings: cited from earlier work
ROCK2 = ROCK2 (Homo sapiens, UniProt O75116); settings: cited from earlier work
ROCK2, sequence (O75116 whole entry): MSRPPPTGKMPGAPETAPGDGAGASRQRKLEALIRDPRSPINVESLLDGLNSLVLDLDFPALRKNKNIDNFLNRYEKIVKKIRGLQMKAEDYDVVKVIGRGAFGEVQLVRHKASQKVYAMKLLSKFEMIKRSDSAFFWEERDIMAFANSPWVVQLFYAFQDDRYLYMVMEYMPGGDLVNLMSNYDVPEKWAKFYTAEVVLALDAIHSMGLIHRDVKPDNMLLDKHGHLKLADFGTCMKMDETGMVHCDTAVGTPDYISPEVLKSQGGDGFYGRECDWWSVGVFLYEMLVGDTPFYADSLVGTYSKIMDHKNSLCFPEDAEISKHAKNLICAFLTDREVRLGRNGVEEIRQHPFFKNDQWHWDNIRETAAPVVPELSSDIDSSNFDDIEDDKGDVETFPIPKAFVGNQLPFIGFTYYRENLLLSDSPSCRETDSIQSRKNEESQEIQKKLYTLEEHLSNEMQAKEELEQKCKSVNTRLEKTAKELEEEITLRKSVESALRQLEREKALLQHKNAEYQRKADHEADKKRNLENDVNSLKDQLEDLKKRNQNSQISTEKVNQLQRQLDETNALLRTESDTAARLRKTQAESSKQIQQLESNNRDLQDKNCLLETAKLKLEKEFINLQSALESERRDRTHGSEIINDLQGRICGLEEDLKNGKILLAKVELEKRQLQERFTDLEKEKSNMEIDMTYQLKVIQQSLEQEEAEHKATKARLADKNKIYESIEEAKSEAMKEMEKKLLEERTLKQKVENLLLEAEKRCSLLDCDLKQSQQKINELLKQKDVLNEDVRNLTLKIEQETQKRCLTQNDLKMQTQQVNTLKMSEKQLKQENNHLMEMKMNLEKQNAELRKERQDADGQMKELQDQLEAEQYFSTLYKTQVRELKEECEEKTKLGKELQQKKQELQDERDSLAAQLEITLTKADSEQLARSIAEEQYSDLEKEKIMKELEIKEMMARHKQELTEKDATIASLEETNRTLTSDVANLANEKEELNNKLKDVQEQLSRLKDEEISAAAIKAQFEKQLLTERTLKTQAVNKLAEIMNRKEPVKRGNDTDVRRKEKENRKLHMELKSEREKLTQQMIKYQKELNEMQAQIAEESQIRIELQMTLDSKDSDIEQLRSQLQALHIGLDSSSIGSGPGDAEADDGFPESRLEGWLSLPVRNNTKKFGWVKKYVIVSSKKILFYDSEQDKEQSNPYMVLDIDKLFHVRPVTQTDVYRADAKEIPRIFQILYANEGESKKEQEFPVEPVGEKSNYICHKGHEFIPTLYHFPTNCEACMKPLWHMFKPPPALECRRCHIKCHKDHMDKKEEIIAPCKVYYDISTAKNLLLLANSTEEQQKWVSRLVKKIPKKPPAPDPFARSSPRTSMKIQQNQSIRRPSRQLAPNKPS

ROCK1 = ROCK1 (Homo sapiens, UniProt Q13464); settings: cited from earlier work
ROCK1, sequence (Q13464 whole entry): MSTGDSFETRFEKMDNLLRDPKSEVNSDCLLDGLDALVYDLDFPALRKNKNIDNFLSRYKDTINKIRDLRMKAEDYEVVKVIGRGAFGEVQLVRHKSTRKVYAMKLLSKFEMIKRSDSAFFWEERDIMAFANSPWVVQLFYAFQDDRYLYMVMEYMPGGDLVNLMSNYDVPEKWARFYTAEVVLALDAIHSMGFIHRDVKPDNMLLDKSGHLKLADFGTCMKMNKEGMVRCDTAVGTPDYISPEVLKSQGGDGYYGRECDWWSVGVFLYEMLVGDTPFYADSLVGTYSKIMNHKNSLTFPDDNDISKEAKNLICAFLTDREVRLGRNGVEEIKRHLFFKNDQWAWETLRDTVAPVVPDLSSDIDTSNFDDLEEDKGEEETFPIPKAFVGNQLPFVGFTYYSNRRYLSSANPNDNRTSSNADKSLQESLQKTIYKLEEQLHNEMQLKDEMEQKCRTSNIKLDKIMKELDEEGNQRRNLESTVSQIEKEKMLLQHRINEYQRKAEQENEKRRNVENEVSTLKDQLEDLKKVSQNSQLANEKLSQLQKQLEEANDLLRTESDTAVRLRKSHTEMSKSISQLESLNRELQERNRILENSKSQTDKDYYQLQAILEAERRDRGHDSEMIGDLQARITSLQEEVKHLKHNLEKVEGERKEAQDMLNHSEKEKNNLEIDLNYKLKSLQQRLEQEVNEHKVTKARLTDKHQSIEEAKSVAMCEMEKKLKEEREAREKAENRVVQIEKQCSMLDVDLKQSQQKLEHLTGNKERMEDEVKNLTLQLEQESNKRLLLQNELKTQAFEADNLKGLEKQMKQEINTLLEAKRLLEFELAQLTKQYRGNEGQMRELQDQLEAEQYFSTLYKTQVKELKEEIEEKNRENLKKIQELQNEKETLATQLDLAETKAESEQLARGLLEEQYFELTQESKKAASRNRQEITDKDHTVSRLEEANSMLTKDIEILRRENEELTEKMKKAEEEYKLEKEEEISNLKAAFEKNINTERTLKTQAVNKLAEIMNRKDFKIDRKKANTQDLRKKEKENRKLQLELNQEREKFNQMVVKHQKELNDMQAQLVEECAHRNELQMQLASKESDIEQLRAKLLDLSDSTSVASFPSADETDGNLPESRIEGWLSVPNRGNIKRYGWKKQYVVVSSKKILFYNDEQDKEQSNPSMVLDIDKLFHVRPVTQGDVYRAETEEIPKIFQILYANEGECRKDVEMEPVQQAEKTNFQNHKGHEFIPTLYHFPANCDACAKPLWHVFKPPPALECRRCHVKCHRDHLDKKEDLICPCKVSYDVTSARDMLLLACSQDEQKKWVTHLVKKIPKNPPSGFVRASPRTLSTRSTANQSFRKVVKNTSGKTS

[3] = after transient middle cerebral artery occlusion; cited from earlier work
PASMC = settings: cited from earlier work
[4] = system: PC-3 prostate cancer cell; settings: in vitro; cited from earlier work
[5] = insulin-resistant mice; cited from earlier work
Rho signaling = settings: cited from earlier work
MKL1 expression = settings: 25 μM; cited from earlier work
PC-3 cell = settings: read-out: IC50 for PC-3 cell migration; cited from earlier work
HMG-COA reductase = HMG-COA reductase (Homo sapiens, UniProt P04035); settings: cited from earlier work
HMG-COA reductase, sequence (P04035 whole entry, species assumed): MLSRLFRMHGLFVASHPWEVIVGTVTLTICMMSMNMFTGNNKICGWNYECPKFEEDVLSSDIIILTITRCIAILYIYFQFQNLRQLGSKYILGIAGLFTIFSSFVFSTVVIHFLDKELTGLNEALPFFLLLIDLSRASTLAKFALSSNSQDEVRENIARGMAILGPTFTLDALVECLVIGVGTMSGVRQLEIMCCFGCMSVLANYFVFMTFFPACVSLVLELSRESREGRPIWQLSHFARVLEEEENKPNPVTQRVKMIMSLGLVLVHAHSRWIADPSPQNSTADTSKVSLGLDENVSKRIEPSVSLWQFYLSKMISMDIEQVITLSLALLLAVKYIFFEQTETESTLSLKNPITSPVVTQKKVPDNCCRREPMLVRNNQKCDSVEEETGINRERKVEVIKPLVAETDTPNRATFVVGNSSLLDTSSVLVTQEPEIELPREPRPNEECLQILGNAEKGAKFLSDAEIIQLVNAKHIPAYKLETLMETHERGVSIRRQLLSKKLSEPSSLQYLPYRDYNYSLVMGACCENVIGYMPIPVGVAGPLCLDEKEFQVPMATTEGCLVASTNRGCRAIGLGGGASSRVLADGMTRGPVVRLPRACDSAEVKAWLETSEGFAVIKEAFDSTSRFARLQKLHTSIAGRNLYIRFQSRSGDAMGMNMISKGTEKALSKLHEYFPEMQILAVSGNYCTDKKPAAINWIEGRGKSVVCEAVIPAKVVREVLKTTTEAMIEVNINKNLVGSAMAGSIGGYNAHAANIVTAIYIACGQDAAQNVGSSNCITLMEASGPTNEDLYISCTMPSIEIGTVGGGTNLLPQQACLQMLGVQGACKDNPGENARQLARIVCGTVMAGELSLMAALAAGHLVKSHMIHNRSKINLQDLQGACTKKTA

MDA-MB-231 cells = settings: cited from earlier work
MRCK = settings: read-out: IC50 against MRCK; cited from earlier work
neuronal cultures = settings: cited from earlier work
MLCK = settings: cited from earlier work; for Ki: read-out: Ki for MLCK / MLC-kinase
ROCK [6] = settings: read-out: Ki (ROCK / Rho kinase); cited from earlier work
PKC = settings: cited from earlier work
[7] = target: Leukemia-associated Rho guanine nucleotide exchange factor (LARG) (Homo sapiens, UniProt Q9NZN5); settings: cited from earlier work
NIH 3T3 cells = settings: 10-30 μM, 24 hours; cited from earlier work
Rac1 = Rac1 (Homo sapiens, UniProt P63000); settings: cited from earlier work
[8] = system: other Rho GTPases (such as Cdc42 or RhoA); settings: cited from earlier work
[9] = spontaneously hypertensive rat; cited from earlier work
[10] = target: cGMP-dependent protein kinase (PKG); settings: cited from earlier work
PKA = settings: cited from earlier work
rat aorta = settings: cited from earlier work
[11] = in vitro; cited from earlier work
ROCK [12] = settings: read-out: Kds, binding to ROCK; cited from earlier work
granulocytes = settings: 50 μM; for 15 min; cited from earlier work
Cdc42 = Cdc42 (Homo sapiens, UniProt P60953); settings: cited from earlier work
[13] = system: Rab2, Rab7, H-Ras, Rac1, Rac 2 and RhoA wild-type; settings: cited from earlier work
RhoA = RhoA (Homo sapiens, UniProt P61586); settings: read-out: Kd for RhoA (RhoA subfamily Rho GTPases); cited from earlier work
B16BL6 and 4T1 cells = settings: murine animal models; cited from earlier work
[14] = system: Cdc42 or Rac1, nor the GEF, LARG; settings: cited from earlier work
rat ROCK-2 = rat ROCK-2 (Rattus norvegicus, UniProt Q62868); settings: cited from earlier work
rat ROCK-2, sequence (Q62868 whole entry): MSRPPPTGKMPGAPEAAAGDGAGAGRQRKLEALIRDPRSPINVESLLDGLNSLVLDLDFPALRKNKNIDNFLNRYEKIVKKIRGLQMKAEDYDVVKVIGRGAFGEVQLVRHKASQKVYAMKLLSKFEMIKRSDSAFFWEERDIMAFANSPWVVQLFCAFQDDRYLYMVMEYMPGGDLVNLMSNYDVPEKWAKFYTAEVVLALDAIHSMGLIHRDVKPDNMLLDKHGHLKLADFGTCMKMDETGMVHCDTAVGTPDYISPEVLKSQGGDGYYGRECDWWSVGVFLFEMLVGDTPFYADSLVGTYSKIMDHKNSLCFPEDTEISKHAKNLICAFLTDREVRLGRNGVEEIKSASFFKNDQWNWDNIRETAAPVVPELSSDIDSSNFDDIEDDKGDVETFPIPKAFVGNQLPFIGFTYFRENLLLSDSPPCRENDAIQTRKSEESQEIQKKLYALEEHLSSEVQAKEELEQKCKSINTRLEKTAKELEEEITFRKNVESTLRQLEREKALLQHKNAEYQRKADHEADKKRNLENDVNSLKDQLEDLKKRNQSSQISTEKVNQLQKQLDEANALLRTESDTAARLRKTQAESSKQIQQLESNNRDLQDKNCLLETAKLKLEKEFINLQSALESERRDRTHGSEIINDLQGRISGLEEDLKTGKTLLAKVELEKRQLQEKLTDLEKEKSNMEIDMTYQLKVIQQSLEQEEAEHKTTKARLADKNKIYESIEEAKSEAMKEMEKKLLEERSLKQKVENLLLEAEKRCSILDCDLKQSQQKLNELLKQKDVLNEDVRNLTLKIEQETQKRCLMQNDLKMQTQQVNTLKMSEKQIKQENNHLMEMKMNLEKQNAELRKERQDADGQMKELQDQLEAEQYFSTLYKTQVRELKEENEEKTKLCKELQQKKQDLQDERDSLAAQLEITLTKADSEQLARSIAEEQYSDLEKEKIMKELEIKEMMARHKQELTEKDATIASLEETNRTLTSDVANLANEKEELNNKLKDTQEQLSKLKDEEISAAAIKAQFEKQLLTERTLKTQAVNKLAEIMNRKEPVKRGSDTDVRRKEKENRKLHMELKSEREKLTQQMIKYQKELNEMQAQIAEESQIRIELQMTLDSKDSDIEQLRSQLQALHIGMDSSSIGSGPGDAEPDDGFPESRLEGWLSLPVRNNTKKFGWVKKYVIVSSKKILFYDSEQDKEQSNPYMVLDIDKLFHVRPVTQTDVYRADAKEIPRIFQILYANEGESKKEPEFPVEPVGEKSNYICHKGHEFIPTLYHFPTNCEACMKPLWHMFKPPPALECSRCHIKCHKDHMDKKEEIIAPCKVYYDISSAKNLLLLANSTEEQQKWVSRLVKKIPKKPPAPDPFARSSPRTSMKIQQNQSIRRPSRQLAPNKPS

[15] = system: ROCK-mediated phosphorylation of MYPTT696; settings: thoracic aorta of spontaneously hypertensive rats; cited from earlier work
[16] = 0.1%, 0.3%, and 0.5%, cited from earlier work
B16 melanoma [17] = settings: cited from earlier work
B16 melanoma [18] = settings: cited from earlier work; remark: listed apart in the source
RAVSMC = settings: LPS plus INF-y; 18 hours; read-out: IC50 for accumulation of nitrite in RAVSMC; cited from earlier work
iNOS gene expression = settings: 10-100 μM; 18 hours; cited from earlier work
RAW 264.7 = settings: LPS plus INF-y; 18 hours; read-out: IC50 for accumulation of nitrite in RAW 264.7; cited from earlier work
[19] = system: T47D and CAMA-1 breast cancer cells; settings: T47D and CAMA-1 cells; cited from earlier work
CaM kinase II = settings: cited from earlier work

Which intraocular pressure [1] does the source give for Cc1ccc(C(=O)OCc2ccc([C@@H](CN)C(=O)Nc3ccc4cnccc4c3)cc2)c(C)c1 [AR-13324] here?
Its intraocular pressure is “reduced intraocular pressure”.

What does the source list for O=C(Nc1cn[nH]c1-c1ccccn1)c1nn(C2CCNCC2)cc1Cl [BDP5290]?
MLC phosphorylation induced by MRCKβ [2]: completely inhibits; IC50 (MRCKα): 10 nM; IC50 (ROCK2): 50 nM; IC50 (ROCK1): 5 nM

With CC(C)NC(=O)COc1cccc(-c2nc(Nc3ccc4[nH]ncc4c3)c3ccccc3n2)c1 [Belumosudil] as the compound, how does the infarct volume [3] read?
The infarct volume was “dose-dependently reduces infarct volume”.

And the “Tsp-1 and CTGF mRNA levels” value (PASMC)?
Its value is “significant down-regulations”.

What does the source list for CC(ONC(=O)c1cc(C(F)(F)F)cc(C(F)(F)F)c1)C(=O)Nc1ccc(Cl)cc1 (stereo not shown) [CCG-1423]?
spontaneous PC-3 cell invasion through a Matrigel matrix [4]: selectively inhibited; glucose uptake and tolerance [5]: improved glucose uptake and tolerance; IC50 (Rho signaling): 1500 nM

Which results are given for O=C(Nc1ccc(Cl)cc1)C1CCCN(C(=O)c2cccc(-c3ccco3)c2)C1 (stereo not shown) [CCG-203971]?
TGF-β-induced MKL1 expression (MKL1 expression): significantly represses; IC50 (PC-3 cell): 4.2 µM

Which IC50 (ROCK2) does the source give for N[C@H](CNc1nc(-c2ccncc2)nc2sc3c(c12)CCCC3)Cc1ccccc1 [CRT0066854] here?
The IC50 was 620 nM.

With COCc1c(C(C)C)nc(C(C)C)c(/C=C/[C@@H](O)C[C@@H](O)CC(=O)O)c1-c1ccc(F)cc1 [Cerivastatin] as the compound, how does the Ki (HMG-COA reductase) read?
Its Ki is 1.3 nM.

And the “proliferation and invasiveness of MDA-MB-231 cells” value (MDA-MB-231 cells)?
The value was “inhibits proliferation and invasiveness”.

For COc1ccc2c(c1)C[C@H](C(=O)Nc1ccc(-c3cn[nH]c3)cc1OCCN(C)C)CO2 [Chroman 1], which IC50 (MRCK) is on record?
Its IC50 is 150 nM.

For Cc1cncc2cccc(S(=O)(=O)N3CCCNC[C@@H]3C)c12 [Compound H-1152], which neurite length (neuronal cultures; 10 μM, BMP4 and LIF cultures) is on record?
The neurite length was “increases neurite length”.

And the neuronal survival (neuronal cultures; 0.5-10 μM)?
The neuronal survival was “no decreased neuronal survival”.

And the Ki (MLCK)?
Its Ki is 10.1 µM.

What about the Ki (ROCK [6]) of the same compound?
Its Ki is 1.6 nM.

And the Ki (PKC)?
The Ki was 9.27 µM.

Which Kd [7] does the source give for Cc1cccc(COc2cccc(/C=C3\C(=O)NN(c4ccccc4)C3=O)c2)c1 [Compound Y16] here?
Its Kd is 76 nM.

And the “RhoA-GTP formation induced by serum” value (NIH 3T3 cells)?
The value was “inhibit RhoA-GTP formation”.

And the “serum or SDF-1α-induced phospho-MLC and phospho-FAK formation” value (NIH 3T3 cells)?
The value was “efficiently inhibits”.

Which results are given for Cc1ccc(NC(=O)c2cccc(OCc3c(C)noc3C)c2)cc1S(N)(=O)=O [Compound Z62954982]?
IC50 (Rac1): 12 µM; times more effective than NSC23766 (Rac1): 4 times; activity of other Rho GTPases [8]: without affecting the activity

For CCn1c(-c2nonc2N)nc2cnc(Oc3cccc(NC(=O)c4ccc(OCCN5CCOCC5)cc4)c3)cc21 [GSK269962A], which blood pressure [9] is on record?
The blood pressure was “dose-dependent reduction in blood pressure”.

What does the source list for CC1=C(C(=O)Nc2cc3cn[nH]c3cc2F)C(c2ccc(Cl)cc2F)N=C(c2ccnc(Cl)c2)N1 (stereo not shown) [GSK-25]?
blood pressure [9]: drop in blood pressure; IC50 (ROCK1): 7 nM

What does the source list for O=S(=O)(c1cccc2cnccc12)N1CCNCC1 [HA-100]?
IC50 [10]: 4 µM; IC50 (PKA; read-out: IC50 for cAMP-dependent protein kinase (PKA)): 8 µM; IC50 (MLCK; read-out: IC50 for MLC-kinase): 240000 nM; Ki (MLCK): 61 µM; Ki (PKC): 6.5 µM; IC50 (PKC; read-out: IC50 for protein kinase C (PKC)): 12 µM

Which “phenylephrine (PE)-induced contraction” value (rat aorta) does the source give for O=C(O)/C=C/c1cccc(Nc2cnc3ccccc3n2)c1 [HL07] here?
The value was “inhibited”.

What does the source list for COc1c(B(O)O)cccc1-c1nc2ccc3[nH]ncc3c2c2c1CCC2 [HSD1590]?
migration [11]: impressive attenuation in migration; Kd (ROCK [12]): < 2 nM

Which IC50 (PKA; read-out: IC50 for PKA) does the source give for Cc1c[nH]c2ncnc(N3CCC(CN)(C(=O)Nc4cccc(OC(=O)N(C)C)c4)CC3)c12 [LX7101] here?
The IC50 was less than 0.001 µM.

Which IC50 (MLCK; read-out: IC50 for MLCK) does the source give for O=S(=O)(c1cccc2c(I)cccc12)N1CCCNCC1 [ML-07 hydrochloride] here?
Its IC50 is 300 nM.

What does the source list for NS(=O)(=O)c1ccc(N2N=C(c3ccccc3)CC2c2ccccc2)cc1 (stereo not shown) [MLS-573151]?
fluorescence intensities of phagocytosed beads or bacteria (phagocytosis efficiency) (granulocytes): markedly reduced; EC50 (Cdc42): 2000 nM; activity against other GTPases family members [13]: inactive

For c1cc(-c2ncco2)cc(-c2nnc(Nc3ccc4[nH]ncc4c3)s2)c1 [ROCK2-IN-2], which IC50 (ROCK2) is on record?
The IC50 was less than 1000 nM.

Which Kd (RhoA) does the source give for N[C@H](Cc1c[nH]c2ccccc12)C(=O)N/N=C/c1ccc2nccnc2c1 [Rhosin hydrochloride] here?
Its Kd is roughly 400 nM.

With N[C@H](Cc1c[nH]c2ccccc12)C(=O)N/N=C/c1ccc2nccnc2c1 [Rhosin] as the compound, how does the “lung metastasis of B16BL6 and 4T1 cells” value (B16BL6 and 4T1 cells) read?
The value was “abrogates the lung metastasis”.

And the “interaction with Cdc42 or Rac1, or LARG” value [14]?
The value was “does not interact”.

For O=c1[nH]ccc2cc(OC3CCNCC3)ccc12 [SAR407899], which IC50 (ROCK2) is on record?
Its IC50 is 135 nM.

What about the Ki (rat ROCK-2) of the same compound?
The Ki was 41 nM.

What about the “ROCK-mediated phosphorylation of MYPTT696” value [15] of the same compound?
Its value is “inhibits”.

Which results are given for CCCOC(=O)c1cccc(-c2cc(C(=O)Nc3ccncc3F)ccc2CN)c1 [Sovesudil]?
IC50 (ROCK2): 2.3 nM; Intraocular Pressure (IOP) ([16]; ocular normotensive and acute hypertensive male rabbits): effectively reduces Intraocular Pressure; hyperemia ([16]; rabbits): without causing distinct hyperemia; IC50 (ROCK1): 3.7 nM

What does the source list for C[C@@H](N)c1ccc(C(=O)Nc2ccncc2)cc1 [Wf-536, (+)-(R)-4-(1-aminoethyl)-N-(4-pyridyl)benzamide monohydrochloride]?
in vivo pulmonary metastasis of B16 melanoma (B16 melanoma [17]): effectively reduced; in vitro invasion of B16 melanoma (B16 melanoma [18]): effectively reduced

With Br.Oc1cc2c(cc1O)C(Cc1cccc3ccccc13)NCC2 (stereo not shown) [YS-49] as the compound, how does the IC50 (RAVSMC) read?
The IC50 was 22 µM.

What about the “iNOS gene expression induced by LPS and/or cytokines” value (iNOS gene expression) of the same compound?
The value was “suppresses iNOS gene expression”.

And the IC50 (RAW 264.7)?
The IC50 was 30 µM.

For COc1ccc(CC(=O)Nc2nc3c(s2)CCc2ccccc2-3)cc1OC [ZINC00881524], which “levels of ROCK1” value [19] is on record?
Its value is “decreases levels of ROCK1”.

What does the source list for “myosin light chain kinase inhibitor peptide, sequence RKKYKYRRK (SEQ ID NO:1) (MLCK inhibitor peptide 18) [MLCK18]”?
selectivity vs CaM kinase II (CaM kinase II): 4000 fold; inhibition of PKA (PKA): without inhibiting PKA; IC50 (MLCK; read-out: IC50 for MLCK): 50 nM
